What was measured:
[1] = target: mutEGFR (D770_N771insSVD) (Homo sapiens, UniProt P00533, INS767SVD); test: Exon20-mutant-EGFR (D770_N771insSVD) TR-FRET kinase assay; assay type: biochemical; conditions: 2 mM ATP, 15 min preincubation
Summary of the method: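 GST-fused human EGFR fragment R669-A1210 carrying the SVD insertion, Sf9-expressed, typically 15 pg/μl, was preincubated with compound for 15 min at 22° C in pH 7.0 Hepes/MgCl2 buffer. Phosphorylation was read by HTRF (665/620 nm ratio), normalised to no-inhibitor and no-enzyme controls.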

[2] = system: BA/F3 (EGFR D770_N771 insSVD T790M) cells; test: Ba/F3 cell survival assay (Cell Titer-Glo), EGFR-insSVD T790M; assay type: cell-based; conditions: Ba/F3 EGFR-D770-N771ins_SVD; 48 h, without IL-3, with EGF
Description: 293T cells from ATCC were transfected with pBABEpuro expression constructs for WT EGFR or EGFR-insSVD, or EGFR-insSVD T790M, and pCL-Eco packaging vector using Fugene-6 transfection reagent from Promega. Plates were incubated at 37° C. for 48 h. Retrovirus was harvested by filtering the media supernatant through a 0.45 μm filter.
Ba/F3 cells purchased from DSMZ were grown in RPMI+10% FBS+10 ng/mL IL-3 and infected with filtered retroviral supernatant at a 1:2 dilution. Polybrene was added to a concentration of 8 μg/mL, plates were spun for 90 min, and incubated for 16 h at 37° C. 2 μg/mL puromycin was added to the infected cells 24 h after infection and cells were continually grown in the presence of puromycin and 10 ng/mL IL-3. Following stably expressing Ba/F3 cell lines were generated: Ba/F3-EGFR-WT, Ba/F3-EGFR-insSVD, Ba/F3-EGFR-insSVD T790M, (Ba/F3-vector-control).
For cell survival assays, Ba/F3 cells were grown to a density of 1-2 million cells per mL, spun down and resuspended in media without IL-3, and replated at a concentration of 200,000-500,000 cells per mL. The cells ectopically expressing WT EGFR, EGFR-insSVD, or EGFR-insSVD T790M were plated with 10 ng/mL Millipore Culture grade EGF. The cells ectopically expressing pBABEpuro empty vector were plated with 10 ng/mL IL-3.
2 days later, cells were plated in 50 μL in a 384 well plate at a concentration of 4000 cells per well for cells assayed in the absence of IL-3 and 2000 cells per well for cells assayed in the presence of IL-3. 100 nL of compound was added to each well using a 100 nL pin head, and plates were incubated at 37° C. for 48 h.
Cell viability was measured by adding 20 μL of Cell Titer-Glo Luminescent Cell Viability Reagent diluted 1:3 in PBS. Plates were sealed with Perkin Elmer Top-Seal, inverted several times to mix, and immediately centrifuged at 1000 rpm for 2 min. Plates were incubated in low light conditions for 8-10 min and luminescence was measured.

[3] = target: mutEGFR (D770_N771insNPG, T790); test: mutEGFR (D770_N771insNPG, T790) kinase assay; assay type: biochemical, human
mutEGFR (D770_N771insNPG, T790), sequence (P00533 with tags, fused parts or gaps INS770NPG limits assumed): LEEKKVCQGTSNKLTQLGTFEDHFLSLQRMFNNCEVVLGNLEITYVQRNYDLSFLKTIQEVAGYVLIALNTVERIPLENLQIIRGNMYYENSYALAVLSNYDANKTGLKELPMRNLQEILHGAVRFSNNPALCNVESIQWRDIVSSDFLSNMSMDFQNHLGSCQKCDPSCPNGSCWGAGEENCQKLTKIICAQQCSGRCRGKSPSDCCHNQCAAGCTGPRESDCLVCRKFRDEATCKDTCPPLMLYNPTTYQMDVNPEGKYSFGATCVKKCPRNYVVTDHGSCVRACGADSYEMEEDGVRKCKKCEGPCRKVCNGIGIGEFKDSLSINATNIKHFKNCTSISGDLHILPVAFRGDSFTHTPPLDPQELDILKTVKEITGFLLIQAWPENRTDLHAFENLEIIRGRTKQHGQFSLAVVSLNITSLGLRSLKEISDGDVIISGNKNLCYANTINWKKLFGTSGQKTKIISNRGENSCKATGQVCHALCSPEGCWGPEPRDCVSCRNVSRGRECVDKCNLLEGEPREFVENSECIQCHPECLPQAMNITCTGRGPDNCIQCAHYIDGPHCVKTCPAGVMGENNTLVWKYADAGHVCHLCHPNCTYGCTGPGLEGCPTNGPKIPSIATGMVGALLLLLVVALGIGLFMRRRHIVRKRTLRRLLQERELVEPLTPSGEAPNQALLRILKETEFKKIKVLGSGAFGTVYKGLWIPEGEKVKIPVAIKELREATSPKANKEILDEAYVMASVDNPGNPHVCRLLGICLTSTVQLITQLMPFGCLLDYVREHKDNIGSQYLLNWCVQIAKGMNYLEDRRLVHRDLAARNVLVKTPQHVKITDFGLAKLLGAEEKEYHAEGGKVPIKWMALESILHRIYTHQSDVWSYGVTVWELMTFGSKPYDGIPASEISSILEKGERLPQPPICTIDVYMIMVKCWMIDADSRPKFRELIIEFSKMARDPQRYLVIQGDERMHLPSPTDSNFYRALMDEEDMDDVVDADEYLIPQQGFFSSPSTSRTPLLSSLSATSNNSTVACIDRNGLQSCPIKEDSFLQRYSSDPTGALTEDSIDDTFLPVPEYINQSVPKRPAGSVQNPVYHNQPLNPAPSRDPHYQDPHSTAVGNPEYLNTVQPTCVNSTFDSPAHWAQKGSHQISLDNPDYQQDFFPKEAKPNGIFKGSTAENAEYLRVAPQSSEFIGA

BA/F3 (insSVD) cells = test: Ba/F3 cell survival assay (Cell Titer-Glo), EGFR-insSVD; assay type: cell-based; conditions: Mus musculus, BaF3, 48 h, without IL-3, with EGF
Summary of the method: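 Viability read by CellTiter-Glo luminescence after 48 h compound exposure at 37° C, 4000 cells/well. Retrovirally transduced, puromycin-selected Ba/F3 lines carrying EGFR-insSVD ± T790M grew IL-3-free with 10 ng/mL EGF for 2 days beforehand; compound delivered by 100 nL pin.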

mutEGFR (D770_N771insSVD), sequence (P00533 with tags, fused parts or gaps INS767SVD limits assumed): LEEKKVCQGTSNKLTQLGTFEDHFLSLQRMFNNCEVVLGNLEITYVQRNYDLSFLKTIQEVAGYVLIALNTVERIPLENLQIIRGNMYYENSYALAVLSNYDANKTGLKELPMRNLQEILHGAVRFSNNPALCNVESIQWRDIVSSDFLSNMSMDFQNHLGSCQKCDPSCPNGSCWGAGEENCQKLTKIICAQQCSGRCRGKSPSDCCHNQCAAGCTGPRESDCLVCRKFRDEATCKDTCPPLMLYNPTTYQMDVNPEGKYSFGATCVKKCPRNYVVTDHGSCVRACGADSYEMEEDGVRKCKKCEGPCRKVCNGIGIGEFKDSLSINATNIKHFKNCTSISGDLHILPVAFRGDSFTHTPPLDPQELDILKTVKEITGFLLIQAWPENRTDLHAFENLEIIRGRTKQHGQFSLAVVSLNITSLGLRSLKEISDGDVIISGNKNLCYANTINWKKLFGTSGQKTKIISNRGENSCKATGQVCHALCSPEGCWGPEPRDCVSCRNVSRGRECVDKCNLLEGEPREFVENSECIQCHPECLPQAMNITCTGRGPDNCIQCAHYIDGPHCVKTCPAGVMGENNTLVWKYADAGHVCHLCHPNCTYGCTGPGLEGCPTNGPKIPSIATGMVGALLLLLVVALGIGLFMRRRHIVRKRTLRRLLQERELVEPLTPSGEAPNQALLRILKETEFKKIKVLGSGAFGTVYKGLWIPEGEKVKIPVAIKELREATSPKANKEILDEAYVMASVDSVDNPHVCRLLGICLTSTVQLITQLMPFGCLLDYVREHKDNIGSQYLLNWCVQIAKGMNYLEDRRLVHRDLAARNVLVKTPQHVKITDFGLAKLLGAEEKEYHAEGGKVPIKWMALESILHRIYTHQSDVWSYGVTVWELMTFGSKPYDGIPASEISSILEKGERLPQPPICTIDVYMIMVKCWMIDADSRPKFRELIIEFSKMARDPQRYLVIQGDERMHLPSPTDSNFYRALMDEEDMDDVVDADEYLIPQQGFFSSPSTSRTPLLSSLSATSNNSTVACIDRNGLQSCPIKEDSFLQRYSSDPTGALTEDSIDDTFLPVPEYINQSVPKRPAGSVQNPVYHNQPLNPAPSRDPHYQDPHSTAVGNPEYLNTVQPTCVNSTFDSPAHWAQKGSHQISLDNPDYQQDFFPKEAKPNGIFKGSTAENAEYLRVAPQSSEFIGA

Molecule `C=CC(=O)N(C)CCOc1cnccc1-c1[nH]c2cccnc2c1-c1ccc(Cl)c(CC)c1` [Example 20, N-[2-({4-[3-(4-chloro-3-ethylphenyl)-1H-pyrrolo[3,2-b]pyridin-2-yl]pyridin-3-yl}oxy)ethyl]-N-methylprop-2-enamide] has an IC50 [1] of 365 nM, an IC50 [2] of 8990 nM and an IC50 [3] of 779 nM. It also gave an IC50 (BA/F3 (insSVD) cells) of 4650 nM.
`C=CC(=O)N(C)CCOc1cnccc1-c1[nH]c2cccnc2c1-c1cccc(Cl)c1OC` [Example 21, N-[2-({4-[3-(3-chloro-2-methoxyphenyl)-1H-pyrrolo[3,2-b]pyridin-2-yl]pyridin-3-yl}oxy)ethyl]-N-methylprop-2-enamide] showed an IC50 [1] of 290 nM, an IC50 [2] of 9980 nM and an IC50 [3] of 2260 nM. It also gave an IC50 (BA/F3 (insSVD) cells) of 4160 nM.
`C=CC(=O)N(C)CCOc1cnccc1-c1[nH]c2cccnc2c1-c1cccc(Cl)c1` [Example 22, N-[2-({4-[3-(3-chlorophenyl)-1H-pyrrolo[3,2-b]pyridin-2-yl]pyridin-3-yl}oxy)ethyl]-N-methylprop-2-enamide] gave an IC50 [1] of 6.8 nM, an IC50 [2] of 7640 nM and an IC50 [3] of 12.2 nM. For the same molecule, the IC50 (BA/F3 (insSVD) cells) was 262 nM.
`C=CC(=O)N(C)CCOc1cnccc1-c1[nH]c2cccnc2c1-c1ccc(Cl)c(Cl)c1` [Example 23, N-[2-({4-[3-(3,4-dichlorophenyl)-1H-pyrrolo[3,2-b]pyridin-2-yl]pyridin-3-yl}oxy)ethyl]-N-methylprop-2-enamide] gave an IC50 [1] of 36.8 nM, an IC50 [2] of 8860 nM and an IC50 [3] of 49.3 nM. It also gave an IC50 (BA/F3 (insSVD) cells) of 2150 nM.
Molecule `C=CC(=O)N(C)CCOc1cnccc1-c1[nH]c2cccnc2c1-c1ccc(F)c(Cl)c1` [Example 24, N-[2-({4-[3-(3-chloro-4-fluorophenyl)-1H-pyrrolo[3,2-b]pyridin-2-yl]pyridin-3-yl}oxy)ethyl]-N-methylprop-2-enamide] has an IC50 [1] of 11.9 nM, an IC50 [2] of 8320 nM and an IC50 [3] of 20.9 nM. For the same molecule, the IC50 (BA/F3 (insSVD) cells) was 726 nM.
`C=CS(=O)(=O)N(C)CCOc1cnccc1-c1[nH]c2cccnc2c1-c1ccccc1` [Example 25, N-methyl-N-(2-{[4-(3-phenyl-1H-pyrrolo[3,2-b]pyridin-2-yl)pyridin-3-yl]oxy}ethyl)ethenesulfonamide] was tested, and the IC50 [1] was 0.501 nM, the IC50 [2] was 3860 nM and the IC50 [3] was 2.08 nM. The IC50 (BA/F3 (insSVD) cells) was 38.8 nM.
`CN(C)C/C=C/C(=O)N(C)CCOc1cnccc1-c1[nH]c2cccnc2c1-c1ccccc1` [Example 26, (2E)-4-(dimethylamino)-N-methyl-N-(2-{[4-(3-phenyl-1H-pyrrolo[3,2-b]pyridin-2-yl)pyridin-3-yl]oxy}ethyl)but-2-enamide] showed an IC50 [1] of 65.9 nM, an IC50 [2] of 9980 nM and an IC50 [3] of 333 nM. It also gave an IC50 (BA/F3 (insSVD) cells) of 1530 nM.
In the case of `C#CC(=O)N(C)CCOc1cnccc1-c1[nH]c2cccnc2c1-c1ccccc1` [Example 27, N-methyl-N-(2-{[4-(3-phenyl-1H-pyrrolo[3,2-b]pyridin-2-yl)pyridin-3-yl]oxy}ethyl)prop-2-ynamide], the IC50 [1] is reported as 19.7 nM, the IC50 [2] is reported as 8410 nM and the IC50 [3] is reported as 69.8 nM. For the same molecule, the IC50 (BA/F3 (insSVD) cells) was 532 nM.
`CC#CC(=O)N(C)CCOc1cnccc1-c1[nH]c2cccnc2c1-c1ccccc1` [Example 28, N-methyl-N-(2-{[4-(3-phenyl-1H-pyrrolo[3,2-b]pyridin-2-yl)pyridin-3-yl]oxy}ethyl)but-2-ynamide] was tested, and the IC50 [1] was 6500 nM, the IC50 [2] was 9980 nM and the IC50 [3] was greater than 20000 nM. It also gave an IC50 (BA/F3 (insSVD) cells) of 9980 nM.
`C=CS(=O)(=O)N(C)CCOc1cnccc1-c1[nH]c2cccnc2c1-c1cccc(Cl)c1` [Example 29, N-[2-({4-[3-(3-chlorophenyl)-1H-pyrrolo[3,2-b]pyridin-2-yl]pyridin-3-yl}oxy)ethyl]-N-methylethenesulfonamide] was tested, and the IC50 [1] was 0.349 nM, the IC50 [2] was 3130 nM and the IC50 [3] was 0.801 nM. For the same molecule, the IC50 (BA/F3 (insSVD) cells) was 52.4 nM.
For `C=CS(=O)(=O)N(C)CCOc1cnccc1-c1[nH]c2cccnc2c1-c1ccc2cc[nH]c2c1` [Example 30, N-[2-({4-[3-(1H-indol-6-yl)-1H-pyrrolo[3,2-b]pyridin-2-yl]pyridin-3-yl}oxy)ethyl]-N-methylethenesulfonamide], the IC50 [1] was 0.513 nM, the IC50 [2] was 831 nM and the IC50 [3] was 1.82 nM. For the same molecule, the IC50 (BA/F3 (insSVD) cells) was 62.2 nM.
In the case of `C=CC(=O)N(C)CCOc1cnccc1-c1[nH]c2cccnc2c1-c1cc(Cl)cc(Cl)c1` [Example 31, N-[2-({4-[3-(3,5-dichlorophenyl)-1H-pyrrolo[3,2-b]pyridin-2-yl]pyridin-3-yl}oxy)ethyl]-N-methylprop-2-enamide], the IC50 [1] is reported as 931 nM, the IC50 [2] is reported as 9980 nM and the IC50 [3] is reported as 391 nM. It also gave an IC50 (BA/F3 (insSVD) cells) of 5530 nM.
`C=CC(=O)N(CC)CCOc1cnccc1-c1[nH]c2cccnc2c1-c1ccccc1` [Example 32, N-ethyl-N-(2-{[4-(3-phenyl-1H-pyrrolo[3,2-b]pyridin-2-yl)pyridin-3-yl]oxy}ethyl)prop-2-enamide] gave an IC50 [1] of 15.1 nM, an IC50 [2] of 9650 nM and an IC50 [3] of 29.9 nM. The IC50 (BA/F3 (insSVD) cells) was 364 nM.
With `C=CS(=O)(=O)N(CC)CCOc1cnccc1-c1[nH]c2cccnc2c1-c1ccccc1` [Example 33, N-ethyl-N-(2-{[4-(3-phenyl-1H-pyrrolo[3,2-b]pyridin-2-yl)pyridin-3-yl]oxy}ethyl)ethenesulfonamide] the IC50 [1] was 0.357 nM, the IC50 [2] was 253 nM and the IC50 [3] was 1.92 nM. The IC50 (BA/F3 (insSVD) cells) was 30.7 nM.
`C=CC(=O)N1CCC[C@H]1COc1cnccc1-c1[nH]c2cccnc2c1-c1ccccc1` [Example 34, 1-[(2S)-2-({[4-(3-phenyl-1H-pyrrolo[3,2-b]pyridin-2-yl)pyridin-3-yl]oxy}methyl)pyrrolidin-1-yl]prop-2-en-1-one] showed an IC50 [1] of 0.367 nM, an IC50 [2] of 750 nM and an IC50 [3] of 2.06 nM. For the same molecule, the IC50 (BA/F3 (insSVD) cells) was 16.9 nM.
For `C=CC(=O)N1CCC[C@@H]1COc1cnccc1-c1[nH]c2cccnc2c1-c1ccccc1` [Example 35, 1-[(2R)-2-({[4-(3-phenyl-1H-pyrrolo[3,2-b]pyridin-2-yl)pyridin-3-yl]oxy}methyl)pyrrolidin-1-yl]prop-2-en-1-one], the IC50 [1] was 53.6 nM, the IC50 [2] was 9980 nM and the IC50 [3] was 349 nM. For the same molecule, the IC50 (BA/F3 (insSVD) cells) was 1400 nM.
`C=CS(=O)(=O)N1CCC[C@H]1COc1cnccc1-c1[nH]c2cccnc2c1-c1ccccc1` [Example 36, 2-(3-{[(2S)-1-(ethenesulfonyl)pyrrolidin-2-yl]methoxy}pyridin-4-yl)-3-phenyl-1H-pyrrolo[3,2-b]pyridine] was tested, and the IC50 [1] was 0.104 nM, the IC50 [2] was 44.6 nM and the IC50 [3] was 0.308 nM. For the same molecule, the IC50 (BA/F3 (insSVD) cells) was 3.27 nM.
With `CN(C)C/C=C/C(=O)N1CCC[C@H]1COc1cnccc1-c1[nH]c2cccnc2c1-c1ccccc1` [Example 37, (2E)-4-(dimethylamino)-1-[(2S)-2-({[4-(3-phenyl-1H-pyrrolo[3,2-b]pyridin-2-yl)pyridin-3-yl]oxy}methyl)pyrrolidin-1-yl]but-2-en-1-one] the IC50 [1] was 3.7 nM, the IC50 [2] was 9130 nM and the IC50 [3] was 11.2 nM. The IC50 (BA/F3 (insSVD) cells) was 229 nM.
Molecule `C=CS(=O)(=O)N1CCC[C@H]1COc1cnccc1-c1[nH]c2cccnc2c1-c1cccc(C(F)(F)F)c1` [Example 38, 2-(3-{[(2S)-1-(ethenesulfonyl)pyrrolidin-2-yl]methoxy}pyridin-4-yl)-3-[3-(trifluoromethyl)phenyl]-1H-pyrrolo[3,2-b]pyridine] has an IC50 [1] of 0.404 nM, an IC50 [2] of 147 nM and an IC50 [3] of 1.05 nM. The IC50 (BA/F3 (insSVD) cells) was 20.1 nM.
`C=CC(=O)N1CCC[C@H]1COc1cnccc1-c1[nH]c2cccnc2c1-c1cccc(C(F)(F)F)c1` [Example 39, 1-[(2S)-2-{[(4-{3-[3-(trifluoromethyl)phenyl]-1H-pyrrolo[3,2-b]pyridin-2-yl}pyridin-3-yl)oxy]methyl}pyrrolidin-1-yl]prop-2-en-1-one] gave an IC50 [1] of 1.19 nM, an IC50 [2] of 5400 nM and an IC50 [3] of 5.22 nM. For the same molecule, the IC50 (BA/F3 (insSVD) cells) was 91.4 nM.
Work on `C=CS(=O)(=O)N1CCC[C@H]1COc1cnccc1-c1[nH]c2cccnc2c1-c1cccc(Cl)c1` [Example 40, 3-(3-chlorophenyl)-2-(3-{[(2S)-1-(ethenesulfonyl)pyrrolidin-2-yl]methoxy}pyridin-4-yl)-1H-pyrrolo[3,2-b]pyridine] yielded an IC50 [1] of 0.193 nM, an IC50 [2] of 67.9 nM and an IC50 [3] of 0.29 nM. It also gave an IC50 (BA/F3 (insSVD) cells) of 8.54 nM.

Reference: patent US20260035365A1, “1H-PYRROLO[3,2-B]PYRIDINE DERIVATIVES AS IRREVERSIBLE INHIBITORS OF MUTANT EGFR FOR THE TREATMENT OF CANCER” (Bayer Aktiengesellschaft, priority 2022, published 2026)
